Results on 12 compounds are retold here after ChEMBL document CHEMBL1153579, “Knowledge based identification of MAO-B selective inhibitors using pharmacophore and structure based virtual screening models” (Eur J Med Chem, 2009).

The assay deals with T1, Amine oxidase [flavin-containing] B (Homo sapiens, UniProt P27338).
T1 sequence (P27338 whole entry): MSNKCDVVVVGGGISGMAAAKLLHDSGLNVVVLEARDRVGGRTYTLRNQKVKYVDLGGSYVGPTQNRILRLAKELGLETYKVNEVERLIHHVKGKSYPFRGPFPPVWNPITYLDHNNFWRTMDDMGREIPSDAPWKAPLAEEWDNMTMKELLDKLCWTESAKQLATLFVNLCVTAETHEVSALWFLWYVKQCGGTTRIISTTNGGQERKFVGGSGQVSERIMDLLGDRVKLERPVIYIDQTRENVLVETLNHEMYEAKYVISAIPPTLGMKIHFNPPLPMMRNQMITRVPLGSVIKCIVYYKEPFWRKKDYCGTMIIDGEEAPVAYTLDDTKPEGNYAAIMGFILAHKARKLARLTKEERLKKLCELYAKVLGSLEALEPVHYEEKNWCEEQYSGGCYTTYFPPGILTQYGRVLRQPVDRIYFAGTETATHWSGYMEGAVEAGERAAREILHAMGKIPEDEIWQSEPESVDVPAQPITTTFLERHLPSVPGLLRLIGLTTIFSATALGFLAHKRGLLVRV
As to the kind of experiment: Inhibition of MAOB.

What is called IC50 is the concentration at which inhibition is half-maximal. Low readings indicate higher potency, high ones lower potency.

For `COc1cc(O)ccc1O`, the IC50 was 8.9 µM. This counts as single-digit micromolar.

On to `Cc1ccc(C2(F)CC2N)cc1` (configuration not stated), for which the IC50 stood at 13 µM.

Compound `COc1ccc(C2=NN(C(C)=O)C(c3ccccc3C)C2)c(OC)c1` (configuration not stated) displayed an IC50 of 40 µM.

As to `COc1ccc(C2CC(c3ccccc3)=NN2C(C)=O)cc1OC` (configuration not stated), inhibition was half-maximal at 25 µM (IC50).

The compound `CCNC(=S)N1N=C(c2ccc(OC)cc2)CC1c1cccs1` (configuration not stated) registered an IC50 of 22 µM. This IC50 and that of the compound before are within 1.5-fold of each other.

`C=CCNC(=S)N1N=C(c2ccc(C)cc2)CC1c1cccs1` (configuration not stated) displayed an IC50 of 240 µM.

For the compound `CCOC(=O)/C=C/c1ccc(O)c(OC)c1` [ETHYL FERULATE], the IC50 turned out to be 6.7 µM.

`CC(=O)NC[C@H]1CN(c2ccc(N3CCOCC3)c(F)c2)C(=O)O1` [LINEZOLID]: 17 µM corresponded to half-maximal inhibition (IC50).

For `Oc1ccc(/C=C\c2cc(O)cc(O)c2)cc1` [CIS-RESVERATROL], the IC50 is 61 µM. Compared with the last compound, the IC50 is about 3.6-fold higher.

`COc1ccc(C2=NN(C(=S)Nc3ccccc3)C(c3cccs3)C2)cc1` (configuration not stated) had a half-inhibitory concentration (IC50) of 92 µM.

`NC1CC1(F)c1ccccc1` (configuration not stated): the IC50 turned out to be 19 µM.

In turn, `C=CNC(=S)N1N=C(c2ccc(OC)cc2)CC1c1cccs1` (configuration not stated) had a concentration for half-maximal inhibition (IC50) of 65 µM.
